Reference: ChEMBL document CHEMBL4715857, “Structure-based linker exploration: Discovery of 1-ethyl-1H-indole analogs as novel ATX inhibitors” (Bioorg Med Chem, 2020)

These compounds were tested against Autotaxin (Homo sapiens, UniProt Q13822) (assay: Inhibition of glycosylated human ATX using FS-3 as substrate preincubated for 45 mins followed by substrate addition and measured every 1 min for 30 mins by fluorescence microplate reader assay).

Row | Structure (SMILES) | IC50 [nM]
1 | CCn1cc(NC(=O)NCc2ccc(F)cc2)c2cc(NC(=O)c3ccc(CN4CCC(O)CC4)cc3)ccc21 | 2.3
2 | CCn1cc(C(=O)N/N=C/c2c(O)ccc3ccccc23)c2cc(-c3nc(CN4CCOCC4)cs3)ccc21 | > 10000
3 | CCn1cc(C(=O)O)c2cc(-c3nc(CN4CCC[C@H]4CO)cs3)ccc21 | 590
4 | CCn1cc(C(=O)N/N=C/c2ccc(F)cc2F)c2cc(-c3nc(CN4CCOCC4)cs3)ccc21 | 4050
5 | CCn1cc(C(=O)N/N=C(\C)c2ccc(OC)cc2)c2cc(-c3nc(CN4CCOCC4)cs3)ccc21 | > 10000
6 | CCn1cc(NC(=O)NCc2ccc(F)cc2)c2cc(-c3nc(CN4CCC(O)CC4)cs3)ccc21 | 313
7 | CCn1cc(C(=O)N/N=C/c2ccc(C(F)(F)F)cc2)c2cc(-c3nc(CN4CCOCC4)cs3)ccc21 | 6140
8 | CCn1cc(C(=O)O)c2cc(-c3nc(CN4CCCC4)cs3)ccc21 | 930
9 | CCn1cc(NC(=O)NCc2ccc(F)cc2)c2cc(NC(=O)c3ccc(CN4CCOCC4)cc3)ccc21 | 110
10 | CCn1cc(C(=O)N/N=C2\CCc3cc(OC)c(OC)cc32)c2cc(-c3nc(CN4CCOCC4)cs3)ccc21 | 8270
11 | CCn1cc(NC(=O)NCc2ccc(Cl)cc2)c2cc(NC(=O)c3ccc(CN4CCOCC4)cc3)ccc21 | 107
12 | CCn1cc(NC(=O)NCc2ccc(F)cc2)c2cc(NC(=O)c3ccc(CN4CCN(C)CC4)cc3)ccc21 | 190
13 | CCn1cc(C(=O)O)c2cc(-c3nc(CN(CO)CO)cs3)ccc21 | 710
14 | CCn1cc(NC(=O)NCc2ccc(Cl)cc2)c2cc(NC(=O)c3ccc(CN4CCC(O)CC4)cc3)ccc21 | 13.1
15 | CCn1cc(C(=O)O)c2cc(-c3nc(CN4CCOCC4)cs3)ccc21 | 820
16 | CCn1cc(C(=O)O)c2cc(-c3nc(CN4CCN(C)CC4)cs3)ccc21 | 1290
17 | CCn1cc(C(=O)N/N=C(\C)c2ccc(F)cc2F)c2cc(-c3nc(CN4CCOCC4)cs3)ccc21 | 9230

Second part, the compound after the results:

Row | IC50 [nM] | Structure (SMILES)
18 | 7240 | CCn1cc(C(=O)N/N=C/c2coc3ccccc3c2=O)c2cc(-c3nc(CN4CCOCC4)cs3)ccc21
19 | 6370 | CCn1cc(C(=O)N/N=C/c2ccc(F)cc2Cl)c2cc(-c3nc(CN4CCOCC4)cs3)ccc21
20 | 234 | CCn1cc(NC(=O)NCc2ccc(F)cc2)c2cc(-c3nc(CN(CCO)CCO)cs3)ccc21
21 | 101 | CCn1cc(NC(=O)NCc2ccc(F)cc2)c2cc(NC(=O)c3ccc(CN4CCN(CCO)CC4)cc3)ccc21
22 | 410 | CCn1cc(C(=O)O)c2cc(-c3nc(CN4CCN(CCO)CC4)cs3)ccc21
23 | 530 | CCn1cc(NC(=O)NCc2ccc(F)cc2)c2cc(NC(=O)c3ccc(CN4CCCCC4)cc3)ccc21
24 | 280 | CCn1cc(NC(=O)NCc2ccc(F)cc2)c2cc(NC(=O)c3ccc(CN4CCCC4)cc3)ccc21
25 | 370 | CCn1cc(NC(=O)NCc2ccc(F)cc2)c2cc(NC(=O)c3ccc(CN4CCC(C)CC4)cc3)ccc21
26 | > 10000 | CCn1cc(C(=O)N/N=C2\CCc3cc(Br)ccc32)c2cc(-c3nc(CN4CCOCC4)cs3)ccc21
27 | 156 | CCn1cc(NC(=O)NCc2ccc(Cl)cc2)c2cc(-c3nc(CN4CCN(CCO)CC4)cs3)ccc21
28 | 351 | CCn1cc(NC(=O)NCc2ccc(Cl)cc2)c2cc(NC(=O)c3ccc(CN4CCCC4)cc3)ccc21
29 | 252 | CCn1cc(NC(=O)NCc2ccc(F)cc2)c2cc(-c3nc(CN4CCOCC4)cs3)ccc21
30 | 3490 | CCn1cc(C(=O)N/N=C/c2ccc(F)c(F)c2)c2cc(-c3nc(CN4CCOCC4)cs3)ccc21
31 | 680 | CCn1cc(C(=O)O)c2cc(-c3nc(CN4CCC(O)CC4)cs3)ccc21
32 | 199 | CCn1cc(NC(=O)NCc2ccc(Cl)cc2)c2cc(-c3nc(CN4CCN(C)CC4)cs3)ccc21
